Assay results taken from patent publication US6093720A, “Trans apovincaminic acid ester derivatives” (Richter Gedeon Vegyeszeti GmbH, priority 1995, dated 2000).
Where “and” joins values, the source holds several entries; their conditions need not be identical. Equal values may be shown once. Entries after “also recorded” stand apart in the source; their conditions may differ. Where a name gives a salt, the structure may show the parent alone.

Legend:
[1] = test system: Fe^2+ -Induced Lipid Peroxidation in Brain Homogenate; test: Fe^2+-induced (non-enzymatic) lipid peroxidation in brain homogenate (ANI); type: biochemical, rat (Hannover-Wistar); settings: for antioxidant activity in Fe^2+-induced lipid peroxidation, in words: comparison with idebenone, DL-α-tocopherol or silymarin
Description: Effect on the Fe^2+ -Induced Lipid Peroxidation in Brain Homogenate
After decapitating Hannover-Wistar rats weighing 150-220 g each, the whole brain was homogenized in 9 volumes of ice-cold Krebs-Ringer's buffer containing 15 mM HEPES, (4-(2-hydroxyethyl)-1-piperazinylethanesulfonic acid) (pH 7.4), 140 mM NaCl7 3.6 mM KCl, 1.5 mM CaCl2, 0.7 mM MgCl2, 1.4 mM KH2 PO4 and 10 glucose. Then the protein content of the solution was determined and adjusted to 10 mg/ml concentration.
After adding the inhibitory agent to be tested in a volume of 5 μl to 200 μl of the homogenate, the incubation mixture was incubated at 37° C. for 20 minutes. The Fe^2+ -induced lipid peroxidation was accomplished by adding 5 μl of 8 mM Fe2 (NH4)2 (SO4)2 solution. After passing of the incubation time, the reaction was stopped by adding 1 ml of a stopping solution containing 0.8 M HCl and 12.5% trichloroacetic acid, then the samples were centrifuged at 2000 g in a Janetzki K70 apparatus at 4° C. for 10 minutes.
To a 0.5 ml portion of the supernatant, 1 ml of 1% thiobarbituric acid solution was added, then the samples were placed in a water bath of 100° C. for 20 minutes. The color intensity developed was determined at 535 nm with a Hitachi 150-20 spectrophotometer by using malondialdehyde bis(diethylacetal) as reference compound.
ANI: non-enzymatically (Fe^2+) induced lipid peroxidation test

[2] = Protection against ischemia-induced injury of memory; type: in vivo; settings: oral dose range between 1 and 10 mg/kg
[3] = Antiischemic effect after oral administration; type: in vivo
[4] = Electroshock-induced retrograde amnesia model; type: in vivo; settings: oral dose range between 0.1 and 10 mg/kg
[5] = "Focal" ischemia models elicited in one well-determined area of the brain; type: in vivo
[6] = test system: NADPH-Induced Lipid Peroxidation in Brain Microsomes; test: NADPH-induced (enzymatic) lipid peroxidation in brain microsomes (AEI); type: biochemical, rat (male Hannover-Wistar); settings: for IC50: NADPH-induced lipid peroxidation, rat brain microsomes, 37° C., 20 minutes, pH 6.8; for antioxidant effect in NADPH-induced lipid peroxidation, in words: comparison with reference compounds
Description: Effect on the NADPH-Induced Lipid Peroxidation in Brain Microsomes
Male Hannover-Wistar rats with a body weight of 150-250 g were used for the preparation of microsomes. After decapitation, the whole brain was removed and homogenized in a 10-fold volume of ice-cold 0.25 M saccharose solution. The homogenate was centrifuged in a Hitachi CR 26H equipment at 15000 g at 4° C. for 10 minutes, then the supernatant was collected and centrifuged in a Hitachi SCP 85H apparatus at 78000 g at 4° C. for 60 minutes. After suspending the precipitate in 0.15 M KCl solution, the protein content of the obtained solution was determined and then adjusted to 10 mg/ml concentration. The microsome thus obtained was frozen in a dry ice-acetone mixture and stored at -70° C. until use. The components of the incubation mixture were: 50 mM TRIS-HCl (pH 6.8), 0.2 mM FeCl3, 1 mM KH2 PO4, 0.5 mM ADP, 0.2 mg of microsomes as well as the compound to be tested. The incubation was carried out with a final volume of 1 ml and with an incubation time of 20 minutes at a temperature of 37° C. The lipid peroxidation was induced by adding 0.4 mM NADPH.
The formation of malondialdehyde was determined by using thiobarbituric acid. After stopping the reaction, 1 ml of 1% thiobarbituric acid solution each was weighed to the samples, which were then placed in a water bath of about 100° C. for 10 minutes. Subsequently, the samples were centrifuged at 2000 g in a Janetzki K70 apparatus at 4° C. for 10 minutes. The absorbance values of the colored supernatant were measured at 535 nm in a Hitachi 150-20 spectrophotometer. Malondialdehyde bis(diethylacetal) was used as reference compound.

[7] = Antiamnesic activity in rats; type: in vivo
[8] = Antiischemic effect on bilateral (carotid) artery ligation model, mortality; type: in vivo, mice; settings: for mortality at 2 mg/kg: 24 h, 30 minutes before 5-minute bilateral carotid ligation, control mortality 70%
Description: 1. Antiischemic Effect (On Bilateral Artery Ligation Model)
N. Himori et al.: Cerebral ischemia model with conscious mice involvement of NMDA receptor activation and derangement of learning and memory ability [J. Pharmacol. Meth. 23, 311-327 (1990)].
Carotid arteries of mice (weighing 30 to 32 g each) were exposed bilaterally under anaesthesia by 450 mg/kg of intraperitoneal (i.p.) chloral hydrate. The sympathetic and vagal nerves were separated and a loose ligation was bilaterally placed below the carotid arteries. Both ends of the ligation were led out on the back, behind the ears. Next day, in conscious state both ends of the ligation were pulled resulting in the stopping of blood supply through the carotid arteries. This was maintained for 5 minutes, then released to provide the reperfusion. The number of animals died during the 5-minute period and the following 24 hours were registered. The calculation of significance was performed by the chi^2 test. The pre-treatment with the compound was carried out intraperitoneally (i.p.) 30 minutes before the ligation.
The transient dramatic decrease in the cerebral blood supply, then the starting of reperfusion after stopping the ligation leads to the formation of extremely toxic oxygen free radicals (superoxide radical, hydrogen peroxide). […] [ED50 is the dose (as mg/kg) diminishing the mortality by 50% in comparison to the untreated is control group].

[9] = Diazepam-induced anterograde amnesia (passive avoidance); type: in vivo, NMRI mice; settings: for Inhibition of the diazepam-induced amnesia %: 1 hour before learning, diazepam 3 mg/kg i.p.
Excerpt: 2. Diazepam-Induced Anterograde Amnesia C. L. Broekkamp et al.: The comparative effects of benzodiazepines, progabide and PK 9084 on acquisition of passive avoidance in mice [Psychopharmacology (Berlin) 83, 122-125 (1984)]. The memory test was accomplished on NMRI mice weighing 25 to 28 g each by using the passive avoidance, a method based on the genetically determined nyctophilic behavior of rodents. During the learning period, the pre-selected animals (mice entering the dark space from the illuminated space within 30 seconds) were placed in an illuminated space. After entering the dark space, the animal received an electric shock (1 mA for […]) onto its planta within 30 seconds, then the time until entry to the dark space (latency period) was registered. After 24 hours, the animals were placed again in the illuminated space and the time until crossing over to the dark space (retention time=T with a time limit of 300 seconds) was measured. For inducing an anterograde amnesia, the animals were treated intraperitoneally with 3 mg/kg of diazepam 30 minutes before learning. The compounds were administered orally in 0.1 or 10 mg/kg doses, respectively 1 hour before learning. [formula]

Row | SMILES | antioxidant activity in Fe^2+-induced lipid peroxidation, in words [1] | protection against ischemia-induced injury of memory, in words [2] | antiischemic effect, in words [3] | protective action, in words [4] | activity on focal ischemia models, in words [5] | IC50 [6] | antioxidant effect in NADPH-induced lipid peroxidation, in words [6] | antioxidant activity compared with idebenone or vinpocetine, in words ([6]; summary statement, in vitro and in vivo) | antiamnesic activity, in words [7] | mortality at 2 mg/kg ([8]; Mus musculus, ip, 2 mg/kg i.p.) [%] | ED50 ([8]; Mus musculus, ip, dose diminishing the mortality by 50% in comparison to the untreated control group) [mg/kg] | antiischemic activity, in words ([8]; bilateral artery ligation, mice, 2 mg/kg i.p.) | Inhibition of the diazepam-induced amnesia % ([9]; 0.1 mg/kg p.o.) [%] | Inhibition of the diazepam-induced amnesia % ([9]; 10.0 mg/kg p.o.) [%] | antiamnesic activity, in words ([9]; diazepam-induced anterograde amnesia, 0.1 and 10 mg/kg p.o.) | IC50 ([1]; Fe^2+-induced lipid peroxidation, rat brain homogenate, 37° C., 20 minutes, pH 7.4)
1 | CC[C@@]12C=C(C(=O)OCCOC(C)=O)n3c4c(c5ccccc53)CCN(CCC1)[C@@H]42 [Compound 2705279, (-)-trans apovincaminic acid 2-acetoxyethyl ester(3β,16α)monohydrochloride] | about twice as active as idebenone or DL-α-tocopherol | protected against the ischemia-induced injury of memory | can be measured after oral administration, too | dose-dependent protective action | active | 6.3 µM and < 10 µM | comparable to that of idebenone | surpasses both in vitro and in vivo that of idebenone or vinpocetine | could well be measured in rats | 10 to 30 | 0.76 | most active | 79 | 119 | particularly effective; also recorded: significant protective effect in both doses used and an activity by far exceeding that of vinpocetine; also recorded: most active in this field | 
2 | CC[C@@]12C=C(C(=O)OCCOC(=O)c3ccc(Cl)cc3)n3c4c(c5ccccc53)CCN(CCC1)[C@@H]42 [Compound 1010961, (-)-trans apovincaminic acid 2-(4-chlorobenzoyloxy)ethyl ester(3β,16α)methanesulfonate] | about twice as active as idebenone or DL-α-tocopherol |  |  |  |  | 5.9 µM and < 10 µM | comparable to that of idebenone |  |  | 60 |  |  | 3 | 15 |  | 5.3 µM and < 10 µM
